We go through 22 compounds from ChEMBL document CHEMBL1133775, “Potent and selective indolomorphinan antagonists of the kappa-opioid receptor” (J Med Chem, 2000).

The target in experiment [1] is Mu-type opioid receptor (Rattus norvegicus, UniProt P33535). Kind of experiment: Binding affinity on HEK293 cells transiently transfected with plasmids encoding the rat Opioid receptor mu 1. In kind it is cell-based.
A short description of experiment [2]: Selectivity ratio, ratio of Ke value of Kappa to Delta opioid receptor.
Experiment [3] addresses Mu-type opioid receptor (Cavia porcellus) (UniProt P97266). Description: Ratio of the IC50 of mu receptor agonist, Morphine in the presence of compound in GPI divided by the control IC50. In kind it is functional.
In experiment [4] the target is Kappa-type opioid receptor (Cavia porcellus) (UniProt P41144). Description: Opioid receptor kappa 1 Antagonism (100 nM) is expressed as (Ke = [antagonist] / (IC50 ratio -1). In kind it is functional.
In experiment [5] the target is T1, Opioid receptors; delta & kappa (Homo sapiens) (UniProt P41145+P41143). Description: Selectivity ratio, ratio of binding affinity of delta to kappa opioid receptor. In kind it is protein assay.
Experiment [6] is described as follows: Selectivity ratio, ratio of Ke value of mu to kappa opioid receptor.
Experiment [7] concerns the target Kappa-type opioid receptor (Cavia porcellus) (UniProt P41144). Kind of experiment: Ratio of the IC50 of Kappa receptor agonist, ethylketazocine in the presence of compound in GPI divided by the control IC50. In kind it is functional.
In experiment [8] the target is Kappa-type opioid receptor (Rattus norvegicus, UniProt P34975). Kind of experiment: Binding affinity on HEK293 cells transiently transfected with plasmids encoding the rat Opioid receptor kappa 1. Type of experiment: cell-based.
Experiment [9] has as its target T2, Opioid receptors; mu & kappa (Homo sapiens) (UniProt P41145+P35372). Description: Selectivity ratio, ratio of binding affinity of mu to kappa opioid receptor. Type of experiment: protein assay.
The target in experiment [10] is Delta-type opioid receptor (Rattus norvegicus, UniProt P33533). Description: Binding affinity on HEK293 cells transiently transfected with plasmids encoding the rat Opioid receptor delta 1. Type of experiment: cell-based.
Experiment [11] concerns the target Mu-type opioid receptor (Cavia porcellus) (UniProt P97266). Description: Opioid receptor mu 1 Antagonism (100 nM) is expressed as (Ke = [antagonist] / (IC50 ratio -1). In kind it is functional.
Experiment [12] concerns the target Delta-type opioid receptor (Mus musculus) (UniProt P32300). Kind of experiment: Ratio of the IC50 of delta receptor agonist, [D-Ala-2, D-Leu5]-enkephalin in the presence of compound in MVD divided by the control IC50. In kind it is functional.
The target of experiment [13] is T1, Opioid receptors; delta & kappa (Homo sapiens). Description: Selectivity ratio, ratio of Ke value of delta to kappa opioid receptor. In kind it is protein assay.
Experiment [14] addresses Delta-type opioid receptor (Mus musculus) (UniProt P32300). Kind of experiment: Opioid receptor delta 1 Antagonism (100 nM) is expressed as (Ke = [antagonist] / (IC50 ratio -1). Type of experiment: functional.
Experiment [15] addresses T2, Opioid receptors; mu & kappa (Homo sapiens). Description: Selectivity ratio, ratio of Ke value of Kappa to mu opioid receptor. Type of experiment: protein assay.

Some results are limits rather than exact numbers.

Kappa-type opioid receptor (Cavia porcellus), sequence (P41144 whole entry): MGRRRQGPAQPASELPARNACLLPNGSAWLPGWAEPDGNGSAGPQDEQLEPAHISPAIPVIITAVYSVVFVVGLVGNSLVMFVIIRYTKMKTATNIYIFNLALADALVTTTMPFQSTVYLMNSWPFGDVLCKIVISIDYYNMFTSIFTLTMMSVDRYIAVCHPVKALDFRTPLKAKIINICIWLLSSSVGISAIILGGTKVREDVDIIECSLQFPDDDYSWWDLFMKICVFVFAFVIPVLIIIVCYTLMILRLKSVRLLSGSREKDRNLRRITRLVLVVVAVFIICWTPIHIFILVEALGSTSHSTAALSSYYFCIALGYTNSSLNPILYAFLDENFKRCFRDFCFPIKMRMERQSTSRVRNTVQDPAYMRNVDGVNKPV
Kappa-type opioid receptor, sequence (P34975 whole entry): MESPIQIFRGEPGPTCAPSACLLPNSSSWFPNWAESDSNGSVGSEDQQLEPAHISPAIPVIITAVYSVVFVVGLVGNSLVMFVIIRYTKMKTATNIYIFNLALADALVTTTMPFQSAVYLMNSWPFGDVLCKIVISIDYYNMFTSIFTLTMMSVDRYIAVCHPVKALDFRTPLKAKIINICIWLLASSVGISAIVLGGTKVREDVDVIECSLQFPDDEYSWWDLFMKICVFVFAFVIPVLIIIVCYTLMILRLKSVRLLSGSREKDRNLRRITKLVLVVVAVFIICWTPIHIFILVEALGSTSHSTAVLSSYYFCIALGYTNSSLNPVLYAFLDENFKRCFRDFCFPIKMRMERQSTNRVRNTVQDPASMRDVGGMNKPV
Mu-type opioid receptor, sequence (P33535 whole entry): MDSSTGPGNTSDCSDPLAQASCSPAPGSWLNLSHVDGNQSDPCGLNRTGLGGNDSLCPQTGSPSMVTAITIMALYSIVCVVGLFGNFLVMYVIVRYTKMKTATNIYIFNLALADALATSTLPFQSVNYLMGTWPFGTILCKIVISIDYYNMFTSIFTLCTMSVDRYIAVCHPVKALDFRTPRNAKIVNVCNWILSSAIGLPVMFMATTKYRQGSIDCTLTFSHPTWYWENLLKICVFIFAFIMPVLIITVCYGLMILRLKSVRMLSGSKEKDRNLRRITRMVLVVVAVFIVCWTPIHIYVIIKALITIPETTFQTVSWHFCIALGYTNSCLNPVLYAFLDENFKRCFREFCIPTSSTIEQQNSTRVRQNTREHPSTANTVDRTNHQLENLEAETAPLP
T1 sequence (P41143 whole entry, looked up): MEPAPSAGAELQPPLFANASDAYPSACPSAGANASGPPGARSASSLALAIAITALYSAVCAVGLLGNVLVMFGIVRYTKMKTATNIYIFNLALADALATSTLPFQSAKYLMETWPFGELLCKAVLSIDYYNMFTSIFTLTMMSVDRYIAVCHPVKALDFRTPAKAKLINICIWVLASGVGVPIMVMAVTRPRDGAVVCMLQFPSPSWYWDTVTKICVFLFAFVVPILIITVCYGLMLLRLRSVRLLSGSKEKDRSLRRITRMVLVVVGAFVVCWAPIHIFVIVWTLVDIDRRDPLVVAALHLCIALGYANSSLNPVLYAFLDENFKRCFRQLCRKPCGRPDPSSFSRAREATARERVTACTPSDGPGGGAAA
T1 sequence (P41145 whole entry, looked up): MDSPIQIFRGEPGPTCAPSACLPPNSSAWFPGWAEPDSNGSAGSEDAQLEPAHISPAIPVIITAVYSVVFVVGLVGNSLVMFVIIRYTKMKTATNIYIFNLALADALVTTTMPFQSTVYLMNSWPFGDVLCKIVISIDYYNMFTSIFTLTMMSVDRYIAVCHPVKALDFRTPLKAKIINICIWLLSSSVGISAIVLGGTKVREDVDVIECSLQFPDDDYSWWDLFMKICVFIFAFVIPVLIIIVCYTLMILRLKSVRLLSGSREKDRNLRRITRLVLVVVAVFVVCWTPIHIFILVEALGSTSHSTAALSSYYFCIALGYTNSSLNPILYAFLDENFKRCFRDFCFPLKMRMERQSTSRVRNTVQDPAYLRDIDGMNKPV
Delta-type opioid receptor (Mus musculus), sequence (P32300 whole entry): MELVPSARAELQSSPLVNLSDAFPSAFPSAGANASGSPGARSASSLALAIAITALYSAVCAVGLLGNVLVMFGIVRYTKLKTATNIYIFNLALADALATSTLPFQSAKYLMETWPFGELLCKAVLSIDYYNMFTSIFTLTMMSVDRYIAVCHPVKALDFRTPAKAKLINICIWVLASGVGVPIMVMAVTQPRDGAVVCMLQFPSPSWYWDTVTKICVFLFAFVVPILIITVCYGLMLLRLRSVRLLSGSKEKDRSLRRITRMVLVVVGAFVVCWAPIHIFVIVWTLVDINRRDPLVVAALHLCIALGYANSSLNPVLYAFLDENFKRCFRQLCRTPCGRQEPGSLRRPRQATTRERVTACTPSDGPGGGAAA
Mu-type opioid receptor (Cavia porcellus), sequence (P97266 whole entry): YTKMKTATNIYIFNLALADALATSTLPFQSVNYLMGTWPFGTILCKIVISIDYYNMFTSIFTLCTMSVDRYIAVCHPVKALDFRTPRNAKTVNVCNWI
T2 sequence (P35372 whole entry, looked up): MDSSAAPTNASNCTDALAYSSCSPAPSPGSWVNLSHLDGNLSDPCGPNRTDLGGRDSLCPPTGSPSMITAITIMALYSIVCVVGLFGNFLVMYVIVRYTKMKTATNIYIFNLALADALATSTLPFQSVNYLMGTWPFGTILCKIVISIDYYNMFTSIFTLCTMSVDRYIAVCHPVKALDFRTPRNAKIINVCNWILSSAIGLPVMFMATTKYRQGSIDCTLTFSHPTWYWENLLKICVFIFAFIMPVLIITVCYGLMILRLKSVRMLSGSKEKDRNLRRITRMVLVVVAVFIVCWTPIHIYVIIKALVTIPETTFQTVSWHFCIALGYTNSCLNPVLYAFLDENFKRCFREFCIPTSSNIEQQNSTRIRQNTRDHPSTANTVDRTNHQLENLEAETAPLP
T2 sequence (P41145 whole entry, looked up): as the sequence (P41145 whole entry, looked up) above
Delta-type opioid receptor, sequence (P33533 whole entry): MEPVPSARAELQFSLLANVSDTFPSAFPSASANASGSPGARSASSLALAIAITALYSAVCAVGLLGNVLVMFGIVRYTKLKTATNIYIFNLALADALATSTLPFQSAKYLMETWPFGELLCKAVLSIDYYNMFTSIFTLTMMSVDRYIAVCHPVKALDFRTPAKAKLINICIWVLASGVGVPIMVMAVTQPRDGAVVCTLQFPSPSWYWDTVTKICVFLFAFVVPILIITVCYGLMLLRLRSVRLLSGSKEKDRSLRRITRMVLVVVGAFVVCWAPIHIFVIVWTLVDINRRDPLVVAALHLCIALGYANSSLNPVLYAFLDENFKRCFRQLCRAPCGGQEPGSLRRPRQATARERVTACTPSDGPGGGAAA

For orientation: Ki means the equilibrium dissociation constant of an inhibitor or competing ligand from its target. For the compound `N=C(N)NCc1ccc2[nH]c3c(c2c1)C[C@@]1(O)[C@H]2Cc4ccc(O)c5c4[C@@]1(CCN2CC1CC1)[C@H]3O5`, the Ki in experiment [1] is 66 nM; in experiment [8], 0.745 nM; in experiment [10], 30.8 nM. For the same compound, the Ratio in experiment [2] came to 172; in experiment [5], 41; in experiment [6] it was 19; in [9], 89. Besides, the values for the IC50 ratio in [3], in experiment [7] and in experiment [12] were 10.3, 172 and 0.88, respectively. In addition, the Ke in experiment [4] turned out to be 0.6 nM; in [11], 11 nM.
In the case of `N/C(S)=N/c1ccc2[nH]c3c(c2c1)C[C@@]1(O)C2Cc4ccc(O)c5c4[C@@]1(CCN2CC1CC1)[C@H]3O5`, the Ratio stood at 12 in experiment [2] and 5.3 in experiment [6]. For the same compound, the IC50 ratio came to 3.6 in experiment [3], 14.9 in [7] and 1.3 in experiment [12]. Besides, the Ke in experiment [4] came to 7.2 nM; in experiment [11], 38 nM.
As for `C[N+](C)(C)Cc1ccc2[nH]c3c(c2c1)C[C@@]1(O)C2Cc4ccc(O)c5c4[C@@]1(CCN2CC1CC1)[C@H]3O5`, the values for the Ki in [1], in experiment [8] and in [10] were 12.8 nM, 0.354 nM and 78.4 nM, respectively. Moreover, the Ratio turned out to be 154 in experiment [2], 221 in [5], 6.2 in experiment [6] and 36 in [9]. Moreover, the figures for the IC50 ratio in experiment [3], in [7] and in experiment [12] were 25.8, 154 and 0.79, respectively. Moreover, the figures for the Ke in experiment [4] and in experiment [11] were 0.7 nM and 4 nM, respectively.
As for `N=C(N)N=C(N)Nc1ccc2[nH]c3c(c2c1)C[C@@]1(O)C2Cc4ccc(O)c5c4[C@@]1(CCN2CC1CC1)[C@H]3O5`, the Ki in [1] amounted to 21.5 nM; in experiment [8], 0.226 nM; in [10] it was 108 nM.
With `N#CN/C(N)=N/Cc1ccc2[nH]c3c(c2c1)C[C@@]1(O)C2Cc4ccc(O)c5c4[C@@]1(CCN2CC1CC1)[C@H]3O5`, the IC50 ratio in experiment [3] is 6.7; in experiment [7], 35.4; in experiment [12], 17.9. For the same compound, the Ke came to 2.9 nM in experiment [4], 5.9 nM in experiment [14] and 18 nM in experiment [11]. Moreover, the Ratio in experiment [6] is 6.2; in [13], 2.
With `CC(=N)Nc1ccc2[nH]c3c(c2c1)C[C@@]1(O)C2Cc4ccc(O)c5c4[C@@]1(CCN2CC1CC1)[C@H]3O5`, the figures for the Ratio in experiment [2] and in experiment [6] were 52 and 15, respectively. Besides, the IC50 ratio in experiment [3] stood at 7.5; in experiment [7], 99.4; in experiment [12], 1.9. Also, the Ke in experiment [4] turned out to be 1 nM; in experiment [11] it was 16 nM.
Take `CN1CC[C@]23c4c5ccc(O)c4O[C@H]2c2[nH]c4ccc(N=C(N)N)cc4c2C[C@@]3(O)C1C5`: the Ki is 876 nM in experiment [1], 2.83 nM in [8] and above 10000 nM in [10].
As to `N=C(N)c1ccc2[nH]c3c(c2c1)C[C@@]1(O)C2Cc4ccc(O)c5c4[C@@]1(CCN2CC1CC1)[C@H]3O5`, the Ki was determined as 65.7 nM in [1], 0.529 nM in experiment [8] and 112 nM in experiment [10]. Moreover, the Ratio was found to be 142 in experiment [2] and 22 in experiment [6]. The values for the IC50 ratio in experiment [3], in experiment [7] and in [12] were 7.2, 142 and 0.3, respectively. Also, the Ke in experiment [4] turned out to be 0.7 nM; in [11] it was 16 nM.
For the compound `C[N+](C)(C)c1ccc2[nH]c3c(c2c1)C[C@@]1(O)C2Cc4ccc(O)c5c4[C@@]1(CCN2CC1CC1)[C@H]3O5`, the Ratio in experiment [2] stood at 9.1; in [15] it was 13. Also, the IC50 ratio amounted to 2.7 in [3], 33.3 in [7] and 3.6 in [12]. Further, the Ke in experiment [4] came out at 3.1 nM.
For the compound `CC(=N)NCc1ccc2[nH]c3c(c2c1)C[C@@]1(O)C2Cc4ccc(O)c5c4[C@@]1(CCN2CC1CC1)[C@H]3O5`, the Ratio in experiment [2] was 17.3; in experiment [6], 1.4. The results for the IC50 ratio in experiment [3], in experiment [7] and in experiment [12] were 12.4, 17.3 and 0.88, respectively. Also, the Ke stood at 6.1 nM in experiment [4] and 8.8 nM in [11].
In the case of `NCCc1ccc2[nH]c3c(c2c1)C[C@@]1(O)C2Cc4ccc(O)c5c4[C@@]1(CCN2CC1CC1)[C@H]3O5`, the Ratio in experiment [2] came out at 21; in experiment [15], 15. Further, the IC50 ratio in [3] was 3.2; in experiment [7] it was 48.1; in [12], 2.3. Besides, the Ke in [4] was found to be 2.1 nM.
For the compound `N=C(N)/N=C(\N)Nc1ccc2[nH]c3c(c2c1)C[C@@]1(O)C2Cc4ccc(O)c5c4[C@@]1(CCN2CC1CC1)[C@H]3O5`, the Ratio worked out at 512 in experiment [2], 478 in [5], 74 in [6] and 95 in experiment [9]. Further, the IC50 ratio stood at 7.9 in [3], 512 in experiment [7] and 0.41 in experiment [12]. The Ke in experiment [4] turned out to be 0.2 nM; in [11], 14 nM.
Consider `N#CN=C(N)Nc1ccc2[nH]c3c(c2c1)C[C@@]1(O)C2Cc4ccc(O)c5c4[C@@]1(CCN2CC1CC1)[C@H]3O5`, for which the figures for the Ki in experiment [1], in experiment [8] and in experiment [10] were 89.8 nM, 4.46 nM and 9.46 nM, respectively.
On to `CN(C)Cc1ccc2[nH]c3c(c2c1)C[C@@]1(O)C2Cc4ccc(O)c5c4[C@@]1(CCN2CC1CC1)[C@H]3O5`, for which the inhibition constant Ki amounted to 36 nM in [1], 0.823 nM in [8] and 15.7 nM in experiment [10]. Besides, the Ratio in [2] stood at 87; in experiment [5], 19; in experiment [6] it was 12; in experiment [9], 44. Besides, the IC50 ratio in [3] was 11.2; in [7], 125; in experiment [12] it was 1.4. Moreover, the values for the Ke in experiment [4] and in experiment [11] were 0.8 nM and 9.8 nM, respectively.
As to `Nc1ccc2[nH]c3c(c2c1)C[C@@]1(O)C2Cc4ccc(O)c5c4[C@@]1(CCN2CC1CC1)[C@H]3O5`, the results for the Ratio in experiment [2] and in experiment [15] were 0.4 and 1.5, respectively. The IC50 ratio in experiment [3] is 2.8; in experiment [7] it was 4; in experiment [12], 10.3. Further, the Ke in [11] worked out at 57 nM.
In the case of `N#CN/C(N)=N/c1ccc2[nH]c3c(c2c1)C[C@@]1(O)C2Cc4ccc(O)c5c4[C@@]1(CCN2CC1CC1)[C@H]3O5`, the IC50 ratio was 7.2 in experiment [3], 33 in experiment [7] and 12 in [12]. The Ratio was found to be 2 in [5], 5.1 in [6], 2.9 in [13] and 20 in experiment [9].
As to `N=C(N)Cc1ccc2[nH]c3c(c2c1)C[C@@]1(O)C2Cc4ccc(O)c5c4[C@@]1(CCN2CC1CC1)[C@H]3O5`, the Ki in experiment [1] came out at 40.8 nM; in experiment [8] it was 0.214 nM; in experiment [10], 33 nM. For the same compound, the Ratio in experiment [2] is 26. Moreover, the IC50 ratio in experiment [3] came to 2.1; in experiment [7], 46.7; in experiment [12], 1.8. The Ke in [4] was determined as 2.2 nM.
Consider `CC(=N)NCCc1ccc2[nH]c3c(c2c1)C[C@@]1(O)C2Cc4ccc(O)c5c4[C@@]1(CCN2CC1CC1)[C@H]3O5`, for which the IC50 ratio in experiment [3] came out at 14.1; in experiment [7] it was 72.1; in experiment [12], 6.4. Moreover, the Ke in experiment [4] was found to be 0.3 nM; in experiment [11] it was 7.6 nM. Further, the Ratio in experiment [6] amounted to 27; in experiment [13], 65.
Take `Oc1ccc2c3c1O[C@H]1c4[nH]c5c(c4C[C@@]4(O)[C@@H](C2)N(CC2CC2)CC[C@]314)C[C@@]1(O)[C@H]2Cc3ccc(O)c4c3[C@@]1(CCN2CC1CC1)[C@H]5O4` [NORBINALTORPHIMINE]: the inhibitory constant (Ki) in experiment [8] came out at 0.244 nM; in experiment [10] it was 41.5 nM.
Consider `CN1CC[C@]23c4c5ccc(O)c4O[C@H]2c2[nH]c4ccc(NC(=N)N)cc4c2C[C@@]3(O)C1C5`, for which the Ratio in experiment [2] is 4.1; in experiment [5], above 3530; in [9], 310; in experiment [15], 6.3. Also, the results for the IC50 ratio in [3], in experiment [7] and in experiment [12] were 1.1, 6.8 and 1.7, respectively. Also, the Ke in experiment [4] worked out at 17 nM.
For `CN(C)c1ccc2[nH]c3c(c2c1)C[C@@]1(O)C2Cc4ccc(O)c5c4[C@@]1(CCN2CC1CC1)[C@H]3O5`, the results for the Ratio in experiment [2] and in [6] were 6.6 and 5.3, respectively. Further, the IC50 ratio was determined as 3.8 in [3], 15.8 in experiment [7] and 2.4 in experiment [12]. Moreover, the Ke came out at 6.8 nM in [4] and 36 nM in experiment [11].
As for `CN(C)CCc1ccc2[nH]c3c(c2c1)C[C@@]1(O)C2Cc4ccc(O)c5c4[C@@]1(CCN2CC1CC1)[C@H]3O5`, the Ratio in experiment [2] was 18; in [15] it was 13. The IC50 ratio amounted to 2.4 in experiment [3], 32 in [7] and 1.8 in [12]. Moreover, the Ke in [4] was 3.2 nM.
